Assay results taken from ChEMBL document CHEMBL4118183, “Lipophilic methylene blue analogues enhance mitochondrial function and increase frataxin levels in a cellular model of Friedreich's ataxia” (Bioorg Med Chem, 2018).
Calls of active or inactive are those of the source. The rule behind the calls is not given here.

Experiments:
[1] = Cytotoxicity against human Friedreich's ataxia lymphocytes assessed as cell viability by measuring live cells at 250 nM after 48 hrs by calceinAM ester/ethidium homodimer-1 staining based flow cytometry (reference value: 89.3%); parameters: species or system Friedreich's ataxia lymphocyte; conditions: read-out: Activity
[2] = Induction of inner mitochondrial membrane potential depolarization in human Friedreich's ataxia lymphocytes assessed as JC-1 aggregates at 2500 nM after 16 hrs by JC1-staining based flow cytometry (reference value: 83%); assay type: functional, Friedreich's ataxia lymphocyte
[3] = test system: Friedreich's ataxia lymphocyte; experiment: Cytoprotective activity against rotenone-induced cytotoxicity in human Friedreich's ataxia lymphocytes assessed as increase in cell viability at 250 to 2500 nM preincubated for 12 hrs followed by complex 1 inhibitor rotenone addition measured after 16 hrs by calceinAM ester/ethidium homodimer-1 staining based flow cytometry; assay type: functional
[4] = Induction of inner mitochondrial membrane potential depolarization in human Friedreich's ataxia lymphocytes assessed as JC-1 monomers at 2500 nM after 16 hrs by JC1-staining based flow cytometry (reference value: 17.3%); assay type: functional, Friedreich's ataxia lymphocyte
[5] = Cytotoxicity against human Friedreich's ataxia lymphocytes assessed as cell viability by measuring dead cells at 2500 nM after 24 hrs by calceinAM ester/ethidium homodimer-1 staining based flow cytometry (reference value: 11.2%); conditions: friedreich's ataxia lymphocyte, 2.5 µM
[6] = test system: Friedreich's ataxia lymphocyte; experiment: (§1) Induction of mitochondrial biogenesis in FRDA patient derived Friedreich's ataxia lymphocytes assessed as increase in COX-1/SDH-A protein levels at 250 nM after 24 to 48 hrs by ELISA; assay type: functional; conditions: Homo sapiens
[7] = test system: Friedreich's ataxia lymphocyte; experiment: Inhibition of DEM-induced ROS production in human Friedreich's ataxia lymphocytes at 250 to 2500 nM incubated for 16 hrs followed by DEM treatment for 80 mins by DCFH-DA dye based flow cytometry; assay type: functional, cell-based
[8] = test system: Friedreich's ataxia lymphocyte; experiment: Increase in total ATP levels in human Friedreich's ataxia lymphocytes at 2.5 uM after 24 hrs by bioluminescence assay; assay type: functional, cell-based
[9] = Induction of inner mitochondrial membrane potential depolarization in human Friedreich's ataxia lymphocytes assessed as JC-1 aggregates at 250 nM after 16 hrs by JC1-staining based flow cytometry (reference value: 83%); assay type: functional, Friedreich's ataxia lymphocyte
[10] = Cytotoxicity against human Friedreich's ataxia lymphocytes assessed as cell viability by measuring dead cells at 2500 nM after 48 hrs by calceinAM ester/ethidium homodimer-1 staining based flow cytometry (reference value: 10.6%); conditions: friedreich's ataxia lymphocyte, 2.5 µM
Homo sapiens [11] = species: Homo sapiens; experiment: (§2) Cytoprotective activity against BSO-treated human Friedreich's ataxia fibroblasts assessed as increase in cell viability incubated overnight followed by BSO addition measured after 48 hrs by calceinAM ester/ethidium homodimer-1 staining based flow cytometry; assay type: functional
[12] = as §2; assay type: functional
[13] = Cytotoxicity against human Friedreich's ataxia lymphocytes assessed as cell viability by measuring dead cells at 250 nM after 48 hrs by calceinAM ester/ethidium homodimer-1 staining based flow cytometry (reference value: 10.6%); conditions: friedreich's ataxia lymphocyte, 0.25 µM
[14] = Cytotoxicity against human Friedreich's ataxia lymphocytes assessed as cell viability by measuring live cells at 250 nM after 24 hrs by calceinAM ester/ethidium homodimer-1 staining based flow cytometry (reference value: 88.2%); parameters: species or system Friedreich's ataxia lymphocyte; conditions: read-out: Activity
[15] = test system: Friedreich's ataxia lymphocyte; experiment: Increase in total ATP levels in human Friedreich's ataxia lymphocytes at 0.1 to 0.5 uM after 24 hrs by bioluminescence assay; assay type: functional, cell-based
[16] = Cytotoxicity against human Friedreich's ataxia lymphocytes assessed as cell viability by measuring live cells at 2500 nM after 24 hrs by calceinAM ester/ethidium homodimer-1 staining based flow cytometry (reference value: 88.2%); parameters: species or system Friedreich's ataxia lymphocyte; conditions: read-out: Activity
[17] = Induction of inner mitochondrial membrane potential depolarization in human Friedreich's ataxia lymphocytes assessed as JC-1 monomers at 250 nM after 16 hrs by JC1-staining based flow cytometry (reference value: 17.3%); assay type: functional, Friedreich's ataxia lymphocyte
[18] = Cytotoxicity against human Friedreich's ataxia lymphocytes assessed as cell viability by measuring live cells at 2500 nM after 48 hrs by calceinAM ester/ethidium homodimer-1 staining based flow cytometry (reference value: 89.3%); parameters: species or system Friedreich's ataxia lymphocyte; conditions: read-out: Activity
[19] = test system: Friedreich's ataxia lymphocyte; experiment: (§3) Increase in frataxin protein expression levels in FRDA patient derived Friedreich's ataxia lymphocytes at 250 nM after 24 to 48 hrs by ELISA; assay type: functional; conditions: Homo sapiens
[20] = Cytotoxicity against human Friedreich's ataxia lymphocytes assessed as cell viability by measuring dead cells at 250 nM after 24 hrs by calceinAM ester/ethidium homodimer-1 staining based flow cytometry (reference value: 11.2%); conditions: friedreich's ataxia lymphocyte, 0.25 µM
[21] = test system: Friedreich's ataxia lymphocyte; experiment: Increase in total ATP levels in human Friedreich's ataxia lymphocytes at 100 nM after 24 hrs by bioluminescence assay; assay type: functional, cell-based
Homo sapiens [22] = species: Homo sapiens; experiment: Cytoprotective activity against BSO-treated human Friedreich's ataxia fibroblasts assessed as increase in cell viability at 25 to 50 nM incubated overnight followed by BSO addition measured after 48 hrs by calceinAM ester/ethidium homodimer-1 staining based flow cytometry; assay type: functional
[23] = test system: Friedreich's ataxia lymphocyte; experiment: Inhibition of DEM-induced ROS production in human Friedreich's ataxia lymphocytes incubated for 16 hrs followed by DEM treatment for 80 mins by DCFH-DA dye based flow cytometry; assay type: functional, cell-based
[24] = Induction of mitochondrial biogenesis in FRDA patient derived Friedreich's ataxia lymphocytes assessed as increase in COX-1/SDH-A protein levels at 50 nM after 24 to 48 hrs by ELISA relative to control; assay type: functional, Homo sapiens, Friedreich's ataxia lymphocyte
[25] = test system: Friedreich's ataxia lymphocyte; experiment: Increase in total ATP levels in human Friedreich's ataxia lymphocytes at 0.5 to 2.5 uM after 24 hrs by bioluminescence assay; assay type: functional, cell-based
[26] = Increase in frataxin protein expression levels in FRDA patient derived Friedreich's ataxia lymphocytes at 50 nM after 24 to 48 hrs by ELISA relative to control; assay type: functional, Homo sapiens, Friedreich's ataxia lymphocyte
[27] = test system: Friedreich's ataxia lymphocyte; experiment: Restoration of total aconitase activity in FRDA patient derived Friedreich's ataxia lymphocytes at 50 to 250 nM after 5 days by colorimetric assay; assay type: functional, cell-based; conditions: Homo sapiens
Mus musculus = species: Mus musculus; experiment: Substrate activity at NADH-ubiquinone oxidoreductase in mouse liver mitochondrial membrane fractions assessed as induction of electron flow from complex-1 by measuring NADH oxidation at 5 uM after 5 mins in presence of complex 1 blocker rotenone at 0.1 uM using NADH and coenzyme Q1; assay type: cell membranes
[28] = as §1; assay type: functional, Homo sapiens, Friedreich's ataxia lymphocyte
[29] = as §3; assay type: functional, Homo sapiens, Friedreich's ataxia lymphocyte

CCCCCCCCCCCCCCCCCc1cc2nc3ccc(N4CCOCC4)cc3sc-2cc1=[N+]1CCOCC1.[I-]
viability at 48 h, 0.25 µM [1]: 87.4% | Activity [2]: 79.8% | Activity [3]: Active | Activity [4]: 20.7% | Activity [5]: 12% | Activity [6]: inactive | inhibition [7]: Active | Activity [8]: inactive | Activity [9]: 84.2% | Activity [10]: 20.8% | Activity (Homo sapiens [11]): Dose-dependent effect | EC50 [12]: 52 nM | Activity [13]: 12.4% | viability at 24 h, 0.25 µM [14]: 91.3% | Activity [15]: Active | viability at 24 h, 2.5 µM [16]: 87.9% | Activity [17]: 16% | viability at 48 h, 2.5 µM [18]: 79% | Activity [19]: inactive | Activity [20]: 8.6%

CCCCCCCCCCCc1cc2nc3ccc(N(C)C)cc3sc-2cc1=[N+](C)C.[I-]
viability at 48 h, 0.25 µM [1]: 85.7% | Activity [21]: inactive | Activity [2]: 54.8% | Activity [3]: Active | Activity [4]: 46.9% | Activity [5]: 54.7% | Activity (Homo sapiens [22]): Active | inhibition [23]: Dose-dependent effect | Activity [6]: inactive | Activity [24]: >=15% | Activity [25]: inactive | Activity [9]: 82.9% | Activity [10]: 83.5% | Activity (Homo sapiens [11]): Dose-dependent effect | EC50 [12]: 35 nM | Activity [13]: 14.2% | viability at 24 h, 0.25 µM [14]: 89.5% | viability at 24 h, 2.5 µM [16]: 45.1% | Activity [26]: >=10% | Activity [17]: 17.4% | viability at 48 h, 2.5 µM [18]: 16.2% | Activity [19]: inactive | Activity [20]: 10.2%

CN(C)c1ccc2nc3ccc(=[N+](C)C)cc-3sc2c1 [METHYLENE BLUE ANHYDROUS]
viability at 48 h, 0.25 µM [1]: 77.5% | Activity [21]: inactive | Activity [3]: Active | inhibition [23]: Dose-dependent effect | Activity [27]: Active | Activity [25]: inactive | Activity (Homo sapiens [11]): Dose-dependent effect | Activity (Mus musculus): Active | viability at 24 h, 0.25 µM [14]: 85.4% | viability at 24 h, 2.5 µM [16]: 60.2% | viability at 48 h, 2.5 µM [18]: 15.4%

CN(C)c1ccc2nc3ccc(N(C)C)cc3[s+]c2c1.[Cl-] [METHYLENE BLUE ANHYDROUS]
Activity [2]: 49% | Activity [4]: 51.2% | Activity [5]: 39.6% | Activity [28]: >=20% | Activity [24]: >=15% | Activity [9]: 80.3% | Activity [10]: 84.3% | EC50 [12]: 75 nM | Activity [13]: 22.5% | Activity [26]: >=10% | Activity [17]: 20.2% | Activity [29]: >=15% | Activity [20]: 14.3%

CCCCCc1cc2nc3ccc(N(C)C)cc3sc-2cc1=[N+](C)C.[I-]
viability at 48 h, 0.25 µM [1]: 78.7% | Activity [21]: inactive | Activity [2]: 31.4% | Activity [3]: Active | Activity [4]: 70.9% | Activity [5]: 62.4% | Activity [28]: >=20% | Activity [25]: inactive | inhibition [7]: Active | Activity [9]: 83.5% | Activity [10]: 95.2% | Activity (Homo sapiens [11]): Dose-dependent effect | EC50 [12]: 66 nM | Activity (Mus musculus): Active | Activity [13]: 21% | viability at 24 h, 0.25 µM [14]: 82.6% | viability at 24 h, 2.5 µM [16]: 37.5% | Activity [17]: 16.9% | viability at 48 h, 2.5 µM [18]: 4.4% | Activity [29]: >=15% | Activity [20]: 17.2%

CCCCCCCCCCCCCc1cc2nc3ccc(N(C)C)cc3sc-2cc1=[N+](C)C.[I-]
viability at 48 h, 0.25 µM [1]: 86.7% | Activity [21]: inactive | Activity [2]: 30.6% | Activity [3]: Active | Activity [4]: 72.2% | Activity [5]: 58.5% | Activity (Homo sapiens [22]): Active | inhibition [23]: Dose-dependent effect | Activity [28]: >=20% | Activity [25]: inactive | Activity [9]: 82.8% | Activity [10]: 78% | Activity (Homo sapiens [11]): Dose-dependent effect | EC50 [12]: 37 nM | Activity [13]: 13.1% | viability at 24 h, 0.25 µM [14]: 89.3% | viability at 24 h, 2.5 µM [16]: 41.3% | Activity [17]: 17.6% | viability at 48 h, 2.5 µM [18]: 21.6% | Activity [29]: >=15% | Activity [20]: 10.3%

CCCCCCCCCCCCCCCCCc1cc2nc3ccc(N(C)C)cc3sc-2cc1=[N+](C)C.[I-]
viability at 48 h, 0.25 µM [1]: 87.7% | Activity [2]: 77.1% | Activity [3]: Active | Activity [4]: 23.4% | Activity [5]: 10.5% | Activity [6]: inactive | inhibition [7]: Active | Activity [8]: inactive | Activity [9]: 85.3% | Activity [10]: 13.5% | Activity (Homo sapiens [11]): Dose-dependent effect | EC50 [12]: 48 nM | Activity [13]: 12.2% | viability at 24 h, 0.25 µM [14]: 91% | Activity [15]: Active | viability at 24 h, 2.5 µM [16]: 89.2% | Activity [17]: 15.2% | viability at 48 h, 2.5 µM [18]: 86.2% | Activity [19]: inactive | Activity [20]: 8.8%
